The target of assay [1] is DGKα (Homo sapiens (Human), UniProt P23743). The assay can be described thus: Biochemical DGK IC50 assay (ADP-Glo, lipid micelle substrate), DGKα. Also: full length DGKα 7.5 nM. The note with it: full length DGKα […], ATP 140 μM, DAG 80 μM. Summed up: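 Luminescent ADP-Glo detection followed a 1 h room-temperature reaction of full-length DGKα on DAG/PS micelles, in HEPES buffer with 10 mM MgCl2, 0.01 mM CaCl2, 0.1 mM Na3VO4, BSA and Tween-20. IC50 derived from inhibition across increasing compound concentrations.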
Sequence of DGKα (P23743 whole entry): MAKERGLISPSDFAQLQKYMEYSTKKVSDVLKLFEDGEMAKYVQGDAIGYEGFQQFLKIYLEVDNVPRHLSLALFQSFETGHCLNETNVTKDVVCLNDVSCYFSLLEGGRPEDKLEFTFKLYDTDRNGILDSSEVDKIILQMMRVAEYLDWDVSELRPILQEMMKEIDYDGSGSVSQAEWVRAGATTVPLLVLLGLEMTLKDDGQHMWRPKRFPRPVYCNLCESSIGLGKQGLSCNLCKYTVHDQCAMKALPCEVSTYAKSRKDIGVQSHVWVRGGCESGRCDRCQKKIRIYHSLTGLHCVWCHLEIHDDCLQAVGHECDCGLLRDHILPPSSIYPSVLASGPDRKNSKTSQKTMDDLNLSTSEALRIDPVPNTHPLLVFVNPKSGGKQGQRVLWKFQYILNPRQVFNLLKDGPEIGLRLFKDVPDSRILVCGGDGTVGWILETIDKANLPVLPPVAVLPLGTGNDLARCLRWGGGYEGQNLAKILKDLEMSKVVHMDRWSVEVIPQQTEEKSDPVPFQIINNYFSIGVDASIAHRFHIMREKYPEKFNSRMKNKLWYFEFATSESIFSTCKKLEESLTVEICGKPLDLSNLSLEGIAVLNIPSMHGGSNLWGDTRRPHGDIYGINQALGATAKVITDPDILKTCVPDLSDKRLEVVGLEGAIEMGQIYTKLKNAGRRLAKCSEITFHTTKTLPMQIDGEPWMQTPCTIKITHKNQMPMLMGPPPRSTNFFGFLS

The target in assay [2] is DGKζ (Homo sapiens (Human), UniProt Q13574). In words: Biochemical DGK IC50 assay (ADP-Glo, lipid micelle substrate), DGKζ. The note with it: full length DGKζ 0.5 nM, ATP 140 μM, DAG 80 μM. Summed up:
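ADP-Glo luminescence measured ADP made in a 1 h room-temperature reaction. The enzyme was Sf9-expressed, purified full-length human DGKζ, and the substrate was DAG/PS micelles. Assay buffer held 50 mM HEPES, 10 mM MgCl2, 0.01 mM CaCl2, 0.1 mM Na3VO4 and 0.01% BSA. IC50 was derived from activity inhibition over a compound concentration series.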

The record followed here is patent US20250346597A1, “CONDENSED HETEROCYCLIC COMPOUNDS AS INHIBITOR OF DIACYLGLYCEROL KINASES” (BEONE MEDICINES I GMBH, priority 2023, published 2025).

Each structure is given as a SMILES string. pIC50: −log10 of the molar value.

Sequence of DGKζ (Q13574 other isoform, or with tags, fused parts or gaps): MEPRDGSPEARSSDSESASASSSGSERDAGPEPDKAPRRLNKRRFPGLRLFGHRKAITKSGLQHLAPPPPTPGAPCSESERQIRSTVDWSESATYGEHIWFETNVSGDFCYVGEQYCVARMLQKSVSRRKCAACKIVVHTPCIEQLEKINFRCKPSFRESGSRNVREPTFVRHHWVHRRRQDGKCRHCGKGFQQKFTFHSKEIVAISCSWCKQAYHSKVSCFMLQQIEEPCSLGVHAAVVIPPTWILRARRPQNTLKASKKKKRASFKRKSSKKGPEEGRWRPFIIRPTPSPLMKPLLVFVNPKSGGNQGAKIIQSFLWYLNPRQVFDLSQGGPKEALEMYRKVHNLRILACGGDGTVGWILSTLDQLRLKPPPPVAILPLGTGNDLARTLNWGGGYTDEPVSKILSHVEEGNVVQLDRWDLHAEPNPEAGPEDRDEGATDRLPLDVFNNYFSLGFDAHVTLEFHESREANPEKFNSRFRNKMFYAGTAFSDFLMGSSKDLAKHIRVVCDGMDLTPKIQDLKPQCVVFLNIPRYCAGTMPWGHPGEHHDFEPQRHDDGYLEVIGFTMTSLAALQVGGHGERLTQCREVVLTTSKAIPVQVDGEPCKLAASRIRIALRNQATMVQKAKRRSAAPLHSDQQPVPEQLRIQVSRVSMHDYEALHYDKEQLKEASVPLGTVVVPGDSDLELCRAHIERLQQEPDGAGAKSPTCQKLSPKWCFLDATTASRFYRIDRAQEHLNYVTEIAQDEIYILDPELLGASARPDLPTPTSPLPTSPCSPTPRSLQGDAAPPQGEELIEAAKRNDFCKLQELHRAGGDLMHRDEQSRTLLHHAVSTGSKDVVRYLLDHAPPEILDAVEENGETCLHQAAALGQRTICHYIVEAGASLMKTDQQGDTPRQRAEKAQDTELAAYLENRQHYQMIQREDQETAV

As to `CC[C@H]1CN(C(C)c2ccc(COC)cc2)[C@H](CC)CN1c1cc(=O)n(C)c2cn(CC#N)nc12` (stereo partly drawn) [Compound A205, 2-(7-((2S,5R)-2,5-diethyl-4-(1-(4-(methoxymethyl)phenyl)ethyl)piperazin-1-yl)-4-methyl-5-oxo-4,5-dihydro-2H-pyrazolo[4,3-b]pyridin-2-yl)acetonitrile], the pIC50 in assay [1] is 6.67; in assay [2] it was 6.85.
